Laboratory results from patent US20260306464A1, “LINAPRAZAN GLURATE FOR TREATING GASTROESOPHAGEAL REFLUX DISEASE (GERD)” (Cinclus Pharma Holding AB (publ), priority 2023, published 2026).

Assay: LEED study: heartburn assessed by mRESQ-eDiary
Type: in vivo, human
Conditions: for % at most mild symptoms 24-hour days (mean) / % heartburn-free 24-hour days (mean) / Patients (%) totally free from heartburn / Patients (%) with at most mild heartburn / Patients (%) with non-mild heartburn: week 4, erosive patients all LA grades
From the text: Relief of reflux-related symptoms may be assessed based on the modified Reflux Symptom Reflux Questionnaire-electronic Diary (mRESQ-eDiary), which is an electronic symptom diary developed for use in partial responders to proton pump inhibitors. mRESQ-eD has three domains (i.e., heartburn, other GERD signs/symptoms and regurgitations/reflux) and eight items (Andrae et al., Clin. Transl. Gastroenterol. 2020, 11(1): e00117).
The study was a randomized, double-blind, active comparator-controlled study with a parallel group design including four arms with linaprazan glurate and one arm with lansoprazole. Pharmacokinetic (PK) blood sampling pre-dose, close before the first and the second dose administration was performed at Day 7, Day 14 and Day 28 visits days in all patients. 248 patients with erosive esophagitis due to GERD LA grade C or D and patients with erosive esophagitis due to GERD LA grade A or B with at least partial symptom response but still endoscopically unhealed after 8 weeks history of standard treatment healing course with PPI, were randomized.
Randomization to one of the treatments with linaprazan glurate 25 mg, 50 mg, 75 mg, 100 mg twice daily (BID), or lansoprazole 30 mg once daily (QD) was based on a 1:1:1:1:1 scheme. One site could not enroll more than about 20% of the overall number of patients (48 patients per site).
The duration of each patient's participation in the study, including screening, blind treatment period and open-label treatment period, was approximately 60 days. The patients were randomized for 4 weeks (28 days, −2/+5 days) of double-blind treatment and were provided with IMP for 35 days (including one additional blister pack dispensed at Visit 2/Day 0) to allow for treatment up to the visit window. […] Following the endoscopic evaluation, all patients received subsequent 4 weeks of open-label treatment with lansoprazole 30 mg QD. Repeated symptom evaluation to detect symptom pattern was assessed during this period.
Four doses of linaprazan glurate (25 mg, 50 mg, 75 mg, 100 mg, and dummies) were administered as tablets twice daily. The active comparator lansoprazole 30 mg and its dummy were administered as capsules once daily in the morning. The study drugs were taken with 100 mL of noncarbonated water at least 30 minutes prior to meals. The duration of double-blind treatment was 28 days −2/+5 days. To blind treatment, each patient received 2 tablets (containing doses of linaprazan glurate (LG) or its dummy) and one capsule (containing lansoprazole or its dummy) in the morning and 2 tablets (containing doses of linaprazan glurate (LG) or its dummy) in the evening, according to the scheme below:
A secondary objective of the study was the safety and tolerability of the four dose levels of linaprazan glurate and lansoprazole, with lansoprazole serving as the active comparator. Another secondary objective of the study was the reflux related symptom pattern during the initial 4 weeks treatment with four dose levels of linaprazan glurate and with lansoprazole, and the symptom pattern during the subsequent additional 4 weeks (weeks 5-8) open-label treatment with lansoprazole 30 mg QD. Heartburn-free 24-hour days and 24-hour days with at most mild heartburn symptoms were assessed based on modified eDiary (mRESQ-eD), including splits into day- and nighttime evaluations.
Reflux related symptoms were assessed based on a modified RESQ-eDiary (mRESQ-eD). Patients were asked to report every 12-hours, once before the morning dose and once before the evening dose of the Investigational Medicinal Product (IMP).

## Cc1cccc(C)c1CNc1cc(C(=O)NCCOC(=O)CCCC(=O)O)cn2c(C)c(C)nc12 [linaprazan glurate, 5-{2-[({8-[(2,6-dimethylbenzyl)amino]-2,3-dimethylimidazo[1,2-a]pyridine-6-yl}carbonyl)-amino]ethoxy}-5-oxopentanoic acid]
FAS Erosive, first week, morning and evening, LG 75 mg BID
  heartburn severity, rank among groups: lowest heartburn severity
FAS Erosive, week 1, LG 75 mg BID
  percentage of symptom free days (highest of groups): 33.3%
FAS Erosive, week 1 to 4, all LG groups
  heartburn-free days vs lansoprazole: more heartburn-free days
FAS Erosive, week 2, LG 75 mg BID
  percentage of symptom free days (highest of groups): 57.2%
FAS Erosive, week 3, LG 75 mg BID
  percentage of symptom free days (highest of groups): 62.6%
FAS Erosive, week 4, LG 100 mg BID
  percentage of symptom free days (highest of groups): 65.2%
FAS Erosive, week 5 open-label lansoprazole, former LG 75 mg group
  percentage of heartburn-free days (highest of groups): 72.6%
FAS Erosive, week 5 to 8 open-label (all on lansoprazole 30 mg QD), former LG groups
  heartburn-free days vs lansoprazole: more heartburn-free days
FAS Erosive, week 6 open-label lansoprazole, former LG 75 mg group
  percentage of heartburn-free days (highest of groups): 73.0%
FAS Erosive, week 7 open-label lansoprazole, former LG 25 mg group
  percentage of heartburn-free days (highest of groups): 81.9%
FAS Erosive, week 8 open-label lansoprazole, former LG 25 mg group
  percentage of heartburn-free days (highest of groups): 87.6%
FAS, first week, morning and evening, LG 75 mg BID
  severity grade of heartburn, rank among groups: lowest severity grade
FAS, week 1, LG 75 mg BID
  percentage of symptom free days (highest of groups): 29.2%
FAS, week 1 to 4, all LG groups
  heartburn-free days vs lansoprazole: more heartburn-free days
FAS, week 2, LG 75 mg BID
  percentage of symptom free days (highest of groups): 52.9%
FAS, week 4, LG 100 mg BID
  percentage of symptom free days (highest of groups): 62.2%
FAS, week 5 open-label lansoprazole, former LG 75 mg group
  percentage of heartburn-free days (highest of groups): 69.6%
FAS, week 5 to 8 open-label (all on lansoprazole 30 mg QD), former LG groups
  heartburn-free days vs lansoprazole: more heartburn-free days
FAS, week 7 open-label lansoprazole, former LG 25 mg group
  percentage of heartburn-free days (highest of groups): 79.4%
FAS, week 8 open-label lansoprazole, former LG 25 mg group
  percentage of heartburn-free days (highest of groups): 82.4%
LA Grade A/B, week 1 to 3, LG 75 mg BID
  heartburn-free days, rank among groups: highest percentage of heartburn-free days
LA Grade A/B, week 5 open-label lansoprazole, former LG 75 mg group
  heartburn-free days, rank among groups: highest percentage of heartburn-free days
LA Grade A/B, weeks 7 and 8 open-label lansoprazole, former LG 25 mg group
  heartburn-free days, rank among groups: highest percentage of heartburn-free days
LA Grade C/D, week 1 and 4, LG 50 mg BID
  heartburn-free days, rank among groups: highest percentage of heartburn-free days
LA Grade C/D, week 2, LG 75 mg BID
  heartburn-free days, rank among groups: highest percentage of heartburn-free days
LA Grade C/D, week 3, LG 100 mg BID
  heartburn-free days, rank among groups: highest percentage of heartburn-free days
LA Grade C/D, week 5 open-label lansoprazole, former LG 50 mg group
  heartburn-free days, rank among groups: highest percentage of heartburn-free days
LA Grade C/D, week 6 to 8 open-label lansoprazole, former LG 75 mg group
  heartburn-free days, rank among groups: highest percentage of heartburn-free days
LG 25 mg BID (N = 21)
  % at most mild symptoms 24-hour days (mean): 96%
  % heartburn-free 24-hour days (mean): 52%
  Patients (%) totally free from heartburn: 45%
  Patients (%) with at most mild heartburn: 97%
  Patients (%) with non-mild heartburn: 6%
LG 50 mg BID (N = 27)
  % at most mild symptoms 24-hour days (mean): 96%
  % heartburn-free 24-hour days (mean): 56%
  Patients (%) totally free from heartburn: 44%
  Patients (%) with at most mild heartburn: 97%
  Patients (%) with non-mild heartburn: 6%
LG 75 mg BID (N = 20)
  % at most mild symptoms 24-hour days (mean): 97%
  % heartburn-free 24-hour days (mean): 56%
  Patients (%) totally free from heartburn: 50%
  Patients (%) with at most mild heartburn: 87%
  Patients (%) with non-mild heartburn: 13%
LG 100 mg BID (N = 19)
  % at most mild symptoms 24-hour days (mean): 100%
  % heartburn-free 24-hour days (mean): 76%
  Patients (%) totally free from heartburn: 63%
  Patients (%) with at most mild heartburn: 92%
  Patients (%) with non-mild heartburn: 8%
